Source: ChEMBL document CHEMBL1201862, “PubChem BioAssay data set” (2004)
Activity calls are given as the source filed them.

Assays:
[1] = biological target: T1, Runt-related transcription factor 1/Core-binding factor subunit beta (Homo sapiens, UniProt Q01196+Q13951); assay: Runt domain/CBFb-SMMHC interaction disruptors – biochemical, TR-FRET (AID 1438); assay type: protein assay
[2] = biological target: T1, Runt-related transcription factor 1/Core-binding factor subunit beta; assay: disruptors of Runt domain/CBFb-SMMHC interaction – biochemical, FRET, Cerulean-Runt, Venus-CBFb-SMMHC, uHTS, […] (AID 1434); assay type: protein assay
[3] = biological target: DNA dC->dU-editing enzyme APOBEC-3A (Homo sapiens, UniProt P31941); assay: Dose Response confirmation of small molecule APOBEC3A DNA Deaminase Inhibitors via a fluorescence-based single-stranded DNA deaminase assay. [Related pubchem assays (depositor defined):AID493011, AID493024]; assay type: functional
Chain of DNA dC->dU-editing enzyme APOBEC-3A (P31941 whole entry): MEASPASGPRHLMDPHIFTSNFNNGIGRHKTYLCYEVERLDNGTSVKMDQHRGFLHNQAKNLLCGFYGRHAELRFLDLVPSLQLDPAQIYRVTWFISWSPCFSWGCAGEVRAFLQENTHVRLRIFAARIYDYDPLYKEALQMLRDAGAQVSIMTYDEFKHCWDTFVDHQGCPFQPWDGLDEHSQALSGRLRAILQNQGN

Caspase-7 = Caspase-7 (Homo sapiens, UniProt P55210); assay: caspase-7 enzyme inhibition, selectivity check – biochemical, DEVD-R110 fluorescence, cherry-pick, selectivity assay for caspase-6 inhibitor project, dose response (AID 743295); assay type: functional
Caspase-6 = Caspase-6 (Homo sapiens, UniProt P55212); assay: inhibition of CASP6 peptide cleavage – biochemical, VEID-R110 fluorescence, cherry-pick, dose response (AID 720632)
Chain of Caspase-6 (P55212 24-179 limits assumed): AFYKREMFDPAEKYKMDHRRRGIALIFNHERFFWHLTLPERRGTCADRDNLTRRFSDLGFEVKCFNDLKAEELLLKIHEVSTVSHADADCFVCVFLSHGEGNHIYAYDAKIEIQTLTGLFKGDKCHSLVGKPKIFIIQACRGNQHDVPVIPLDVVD
Chain of Caspase-6 (P55212 194-293 limits assumed): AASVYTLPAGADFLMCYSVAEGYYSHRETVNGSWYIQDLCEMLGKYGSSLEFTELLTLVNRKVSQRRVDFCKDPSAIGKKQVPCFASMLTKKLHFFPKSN

[4] = biological target: DNA dC->dU-editing enzyme APOBEC-3G (Homo sapiens, UniProt Q9HC16); assay type: functional;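 further: Dose-response counterscreen measuring inhibition of APOBEC3G DNA deaminase activity, run while confirming APOBEC3A inhibitors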
Chain of DNA dC->dU-editing enzyme APOBEC-3G (Q9HC16 whole entry): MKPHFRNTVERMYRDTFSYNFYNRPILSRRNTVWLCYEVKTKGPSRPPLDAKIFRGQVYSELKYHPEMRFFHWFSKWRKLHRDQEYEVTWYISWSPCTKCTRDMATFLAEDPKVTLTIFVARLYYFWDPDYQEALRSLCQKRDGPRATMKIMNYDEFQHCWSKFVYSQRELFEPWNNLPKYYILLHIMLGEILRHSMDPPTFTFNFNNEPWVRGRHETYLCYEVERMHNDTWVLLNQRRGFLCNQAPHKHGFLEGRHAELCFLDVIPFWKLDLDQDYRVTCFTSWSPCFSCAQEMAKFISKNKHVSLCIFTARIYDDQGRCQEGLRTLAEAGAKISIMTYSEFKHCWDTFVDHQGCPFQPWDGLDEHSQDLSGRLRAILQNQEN

Bcl-2-like protein 1 = Bcl-2-like protein 1 (Homo sapiens, UniProt Q07817); assay: blockers of BCLXL peptide binding – biochemical, fluorescence polarization, 1536-well, selectivity assay for MCL1 inhibitor project, dose response (AID 2218)
[5] = biological target: Induced myeloid leukemia cell differentiation protein Mcl-1 (Homo sapiens, UniProt Q07820); assay: blockers of MCL1 binding to BIM peptide – biochemical, fluorescence polarization, BIM-BH3 peptide, 1536-well, dose response (AID 2217)
Coagulation factor XII [6] = biological target: T2, Coagulation factor XII (Homo sapiens, UniProt P00748); assay: Factor XIIa Dose Response Confirmation from Single Well HTS. [Related pubchem assays (depositor defined):AID701]; assay type: functional
T2 sequence (P00748 whole entry): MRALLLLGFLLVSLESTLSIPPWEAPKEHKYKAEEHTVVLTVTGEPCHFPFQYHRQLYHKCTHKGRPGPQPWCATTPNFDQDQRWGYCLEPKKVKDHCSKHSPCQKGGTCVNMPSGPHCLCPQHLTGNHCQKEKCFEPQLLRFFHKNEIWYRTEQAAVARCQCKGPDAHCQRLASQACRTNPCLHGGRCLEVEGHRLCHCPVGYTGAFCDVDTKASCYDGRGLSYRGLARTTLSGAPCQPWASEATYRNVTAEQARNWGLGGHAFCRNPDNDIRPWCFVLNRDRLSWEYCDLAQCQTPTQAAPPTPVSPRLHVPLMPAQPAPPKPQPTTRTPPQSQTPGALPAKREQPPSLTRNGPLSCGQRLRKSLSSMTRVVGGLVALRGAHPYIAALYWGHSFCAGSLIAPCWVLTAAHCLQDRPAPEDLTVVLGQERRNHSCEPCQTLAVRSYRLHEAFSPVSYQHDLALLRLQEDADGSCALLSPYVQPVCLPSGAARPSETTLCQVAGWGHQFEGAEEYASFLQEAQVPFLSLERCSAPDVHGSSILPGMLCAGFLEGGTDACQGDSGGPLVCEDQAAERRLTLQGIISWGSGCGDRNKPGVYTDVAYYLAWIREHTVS

[7] = biological target: T3, Heat shock factor protein 1 (Mus musculus, UniProt P38532); assay: decrease of HSF1-responsive luciferase luminescence – cell-based, NIH3T3, dose retest, confirmation (AID 2382); assay type: functional;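 further: NIH3T3 fibroblasts with HSF1-driven luciferase reporter stressed by proteasome inhibitor MG132; luminescence from HSF1-driven luciferase expression after 8 hours of MG132 stress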
T3 sequence (P38532 whole entry): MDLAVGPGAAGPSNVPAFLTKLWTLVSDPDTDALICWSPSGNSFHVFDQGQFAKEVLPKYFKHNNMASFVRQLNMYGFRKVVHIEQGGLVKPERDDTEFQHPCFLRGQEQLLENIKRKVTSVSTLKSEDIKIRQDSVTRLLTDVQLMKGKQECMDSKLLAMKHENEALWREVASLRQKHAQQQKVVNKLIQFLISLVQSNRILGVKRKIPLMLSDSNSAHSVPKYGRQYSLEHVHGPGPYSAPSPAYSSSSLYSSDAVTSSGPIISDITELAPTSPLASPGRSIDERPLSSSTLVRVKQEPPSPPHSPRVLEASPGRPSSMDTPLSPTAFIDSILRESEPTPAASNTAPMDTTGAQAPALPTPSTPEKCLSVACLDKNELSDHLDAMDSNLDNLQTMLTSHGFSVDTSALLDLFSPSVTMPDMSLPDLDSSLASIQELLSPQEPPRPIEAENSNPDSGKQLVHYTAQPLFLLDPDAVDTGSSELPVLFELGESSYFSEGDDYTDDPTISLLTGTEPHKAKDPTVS

[8] = luciferase reporter signal suppression in cells – H4 neuroglioma cells, luminescence, dose response (AID 1990); assay type: functional, cell-based
X-box-binding protein 1 = X-box-binding protein 1 (Homo sapiens, UniProt P17861); assay type: functional, Cricetulus griseus;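 further: confirmatory dose-response counter-screen serving a CHOP assay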
BJ [9] = assay: BJ-TERT-LT-ST fibroblast viability loss – cell-based, RAS-independent, luminescence, dose response (AID 1935); assay type: functional; details: Homo sapiens;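 further: BJ fibroblasts immortalized with TERT plus LT and ST oncogenes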
INS1 = assay: INS-1E survival protection against cytokine death – cell-based, luminescence, retest, dose response (AID 449756); assay type: functional; details: Rattus norvegicus;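 further: cell death triggered by IL-1 beta plus TNF-alpha plus IFN-gamma mixture; protective hits raise ATP signal compared with cytokine alone wells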
[10] = DRD fibroblast viability loss – cell-based, non-viral oncogenic, luminescence, dose response (AID 1934); assay type: functional; details: Homo sapiens
[11] = decrease of insulin promoter-GFP reporter – imaging, high-content screening, mouse beta cells (AID 1628); assay type: functional; details: MIN6
BJ [12] = assay: BJ-TERT fibroblast viability loss – cell-based, RAS-independent, luminescence, dose response (AID 1933); assay type: functional; details: Homo sapiens
[13] = biological target: T4, Type-1 angiotensin II receptor (Homo sapiens, UniProt P30556); assay: agonist activity at AGTR1 – cell-based, uHTS hits, selectivity assay for APJ receptor agonist project, dose response (AID 488865); assay type: functional;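 further: beta-arrestin recruitment to AT1 measured by enzyme fragment complementation luminescence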
T4 sequence (P30556 whole entry): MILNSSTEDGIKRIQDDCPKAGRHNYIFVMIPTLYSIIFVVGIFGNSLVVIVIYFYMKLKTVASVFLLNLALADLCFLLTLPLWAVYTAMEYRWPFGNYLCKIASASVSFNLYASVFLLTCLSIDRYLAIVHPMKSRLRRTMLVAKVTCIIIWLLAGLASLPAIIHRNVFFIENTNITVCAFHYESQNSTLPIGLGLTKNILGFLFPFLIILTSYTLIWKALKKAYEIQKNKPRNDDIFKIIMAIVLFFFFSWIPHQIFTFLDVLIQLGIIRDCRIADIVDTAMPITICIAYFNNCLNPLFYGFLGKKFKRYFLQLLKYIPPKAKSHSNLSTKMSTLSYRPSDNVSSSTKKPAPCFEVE

[14] = MIN6 cell viability loss – mouse insulinoma, cytotoxicity control, dose response (AID 2122); assay type: functional;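 further: confirmatory high-throughput counterscreen run to flag cytotoxic compounds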
[15] = alpha-synuclein stem-loop luciferase translation blockers – H4 neuroglioma cells, luminescence, confirmation (AID 1988); assay type: functional, cell-based
BJ [16] = assay: growth inhibition of engineered Ras-driven BJ cells – cell-based, alamar blue fluorescence, cherrypicked samples, dose response (AID 2631); assay type: functional; details: Homo sapiens;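 further: confirmatory dose-response assay in RAS-dependent BJ fibroblasts engineered with TERT, LT and ST, with cytotoxicity read by fluorescence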
BJ [17] = assay: cells; assay type: functional, cell-based; details: Homo sapiens
[18] = Luminescence Cell-Based Dose Response HTS to Identify Inhibitors of 5'UTR Stem-Loop Driven Prion Protein mRNA Translation in H4 Neuroglioblastoma Cells. [Related pubchem assays: 1827 (Project Summary), 1813 (Primary HTS)]; assay type: functional
Coagulation factor XII [19] = biological target: T2, Coagulation factor XII; assay: activated coagulation factor XII inhibitor potency, concentration-effect curve, cell-free (AID 716); assay type: functional
T-cell = assay: loss of vesicle association with mouse CD8+ T cells – mouse 2C CD8+ T cells, flow cytometry, dose response (AID 485284); assay type: functional
[20] = biological target: T5, G-protein coupled receptor 35 (Homo sapiens, UniProt Q9HC97); assay: SAR analysis of Antagonists of the GPR35 Receptor using an Image-Based Assay - Set 4. [Related pubchem assays (depositor defined):[…]]; assay type: functional
T5 sequence (Q9HC97 whole entry): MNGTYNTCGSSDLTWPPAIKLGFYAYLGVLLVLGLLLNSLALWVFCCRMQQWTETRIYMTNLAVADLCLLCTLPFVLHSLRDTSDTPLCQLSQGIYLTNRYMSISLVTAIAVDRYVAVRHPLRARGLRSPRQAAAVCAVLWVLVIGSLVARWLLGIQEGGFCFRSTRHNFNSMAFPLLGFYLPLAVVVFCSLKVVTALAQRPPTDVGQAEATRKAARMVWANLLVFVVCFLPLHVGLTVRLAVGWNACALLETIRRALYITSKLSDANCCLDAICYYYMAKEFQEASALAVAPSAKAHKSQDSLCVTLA

[21] = biological target: G-protein coupled receptor 55 (Homo sapiens, UniProt Q9Y2T6); assay: SAR analysis of selective Agonists of GPR55 using an Image-Based Assay - Set 2. [Related pubchem assays (depositor defined):AID1961, AID1965]; assay type: functional
[22] = biological target: T5, G-protein coupled receptor 35; assay: SAR analysis of Agonists of the GPR35 Receptor using an Image-Based Assay - Set 3. [Related pubchem assays (depositor defined):AID1961, AID1965]; assay type: functional
Cannabinoid receptor 2 [23] = biological target: T6, Cannabinoid receptor 2 (Homo sapiens, UniProt P34972); assay: SAR analysis of antagonists of the Cannabinoid Receptor 2 using an Image-Based Assay - Set 2. [Related pubchem assays (depositor defined):AID1961, AID1965]; assay type: functional
T6 sequence (P34972 whole entry): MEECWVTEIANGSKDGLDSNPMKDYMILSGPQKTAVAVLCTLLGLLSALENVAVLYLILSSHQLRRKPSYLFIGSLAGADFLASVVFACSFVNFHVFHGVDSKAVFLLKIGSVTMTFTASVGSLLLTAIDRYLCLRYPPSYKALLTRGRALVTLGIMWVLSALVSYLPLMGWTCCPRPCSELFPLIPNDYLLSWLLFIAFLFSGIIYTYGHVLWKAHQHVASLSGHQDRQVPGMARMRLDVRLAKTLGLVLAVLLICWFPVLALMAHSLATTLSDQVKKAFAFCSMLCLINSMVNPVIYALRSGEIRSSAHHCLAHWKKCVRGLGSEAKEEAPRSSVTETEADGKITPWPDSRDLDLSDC

Cannabinoid receptor 1 [24] = biological target: T7, Cannabinoid receptor 1 (Homo sapiens, UniProt P21554); assay: SAR analysis of antagonists of the Cannabinoid Receptor 1 using an Image-Based Assay - Set 3. [Related pubchem assays (depositor defined):AID1961, AID1965]; assay type: functional
T7 sequence (P21554 whole entry): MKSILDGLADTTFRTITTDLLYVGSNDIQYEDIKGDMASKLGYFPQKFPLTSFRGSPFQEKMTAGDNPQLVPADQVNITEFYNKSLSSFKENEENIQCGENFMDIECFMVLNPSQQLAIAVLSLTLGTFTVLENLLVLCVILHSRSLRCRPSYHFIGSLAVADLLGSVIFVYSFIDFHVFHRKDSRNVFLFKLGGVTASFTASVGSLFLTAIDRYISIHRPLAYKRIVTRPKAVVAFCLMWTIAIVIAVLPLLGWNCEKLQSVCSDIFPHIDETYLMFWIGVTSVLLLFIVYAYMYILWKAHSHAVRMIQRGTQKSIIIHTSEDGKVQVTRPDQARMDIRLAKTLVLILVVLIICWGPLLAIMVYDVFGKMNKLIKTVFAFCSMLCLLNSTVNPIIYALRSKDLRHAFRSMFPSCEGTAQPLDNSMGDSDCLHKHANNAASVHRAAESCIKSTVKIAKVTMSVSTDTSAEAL

Cannabinoid receptor 2 [25] = biological target: T6, Cannabinoid receptor 2; assay: SAR analysis of agonists of the Cannabinoid Receptor 2 using an Image-Based Assay - Set 2. [Related pubchem assays (depositor defined):AID1961, AID1965]; assay type: functional
Cannabinoid receptor 1 [26] = biological target: T7, Cannabinoid receptor 1; assay: SAR analysis of agonists of the Cannabinoid Receptor 1 using an Image-Based Assay - Set 3. [Related pubchem assays (depositor defined):AID1961, AID1965]; assay type: functional
[27] = biological target: T8, Voltage-dependent T-type calcium channel subunit alpha-1H (Homo sapiens, UniProt O95180); assay: Inhibitors of T-Type Calcium Channels (Cav3.2 HEK whole cell CRC). [Related pubchem assays (depositor defined):AID449739, AID463087, AID489005, AID493021, AID493022, AID493023, AID493041, AID504579, AID504584]; assay type: functional, cell-based, HEK293
T8 sequence (O95180 whole entry): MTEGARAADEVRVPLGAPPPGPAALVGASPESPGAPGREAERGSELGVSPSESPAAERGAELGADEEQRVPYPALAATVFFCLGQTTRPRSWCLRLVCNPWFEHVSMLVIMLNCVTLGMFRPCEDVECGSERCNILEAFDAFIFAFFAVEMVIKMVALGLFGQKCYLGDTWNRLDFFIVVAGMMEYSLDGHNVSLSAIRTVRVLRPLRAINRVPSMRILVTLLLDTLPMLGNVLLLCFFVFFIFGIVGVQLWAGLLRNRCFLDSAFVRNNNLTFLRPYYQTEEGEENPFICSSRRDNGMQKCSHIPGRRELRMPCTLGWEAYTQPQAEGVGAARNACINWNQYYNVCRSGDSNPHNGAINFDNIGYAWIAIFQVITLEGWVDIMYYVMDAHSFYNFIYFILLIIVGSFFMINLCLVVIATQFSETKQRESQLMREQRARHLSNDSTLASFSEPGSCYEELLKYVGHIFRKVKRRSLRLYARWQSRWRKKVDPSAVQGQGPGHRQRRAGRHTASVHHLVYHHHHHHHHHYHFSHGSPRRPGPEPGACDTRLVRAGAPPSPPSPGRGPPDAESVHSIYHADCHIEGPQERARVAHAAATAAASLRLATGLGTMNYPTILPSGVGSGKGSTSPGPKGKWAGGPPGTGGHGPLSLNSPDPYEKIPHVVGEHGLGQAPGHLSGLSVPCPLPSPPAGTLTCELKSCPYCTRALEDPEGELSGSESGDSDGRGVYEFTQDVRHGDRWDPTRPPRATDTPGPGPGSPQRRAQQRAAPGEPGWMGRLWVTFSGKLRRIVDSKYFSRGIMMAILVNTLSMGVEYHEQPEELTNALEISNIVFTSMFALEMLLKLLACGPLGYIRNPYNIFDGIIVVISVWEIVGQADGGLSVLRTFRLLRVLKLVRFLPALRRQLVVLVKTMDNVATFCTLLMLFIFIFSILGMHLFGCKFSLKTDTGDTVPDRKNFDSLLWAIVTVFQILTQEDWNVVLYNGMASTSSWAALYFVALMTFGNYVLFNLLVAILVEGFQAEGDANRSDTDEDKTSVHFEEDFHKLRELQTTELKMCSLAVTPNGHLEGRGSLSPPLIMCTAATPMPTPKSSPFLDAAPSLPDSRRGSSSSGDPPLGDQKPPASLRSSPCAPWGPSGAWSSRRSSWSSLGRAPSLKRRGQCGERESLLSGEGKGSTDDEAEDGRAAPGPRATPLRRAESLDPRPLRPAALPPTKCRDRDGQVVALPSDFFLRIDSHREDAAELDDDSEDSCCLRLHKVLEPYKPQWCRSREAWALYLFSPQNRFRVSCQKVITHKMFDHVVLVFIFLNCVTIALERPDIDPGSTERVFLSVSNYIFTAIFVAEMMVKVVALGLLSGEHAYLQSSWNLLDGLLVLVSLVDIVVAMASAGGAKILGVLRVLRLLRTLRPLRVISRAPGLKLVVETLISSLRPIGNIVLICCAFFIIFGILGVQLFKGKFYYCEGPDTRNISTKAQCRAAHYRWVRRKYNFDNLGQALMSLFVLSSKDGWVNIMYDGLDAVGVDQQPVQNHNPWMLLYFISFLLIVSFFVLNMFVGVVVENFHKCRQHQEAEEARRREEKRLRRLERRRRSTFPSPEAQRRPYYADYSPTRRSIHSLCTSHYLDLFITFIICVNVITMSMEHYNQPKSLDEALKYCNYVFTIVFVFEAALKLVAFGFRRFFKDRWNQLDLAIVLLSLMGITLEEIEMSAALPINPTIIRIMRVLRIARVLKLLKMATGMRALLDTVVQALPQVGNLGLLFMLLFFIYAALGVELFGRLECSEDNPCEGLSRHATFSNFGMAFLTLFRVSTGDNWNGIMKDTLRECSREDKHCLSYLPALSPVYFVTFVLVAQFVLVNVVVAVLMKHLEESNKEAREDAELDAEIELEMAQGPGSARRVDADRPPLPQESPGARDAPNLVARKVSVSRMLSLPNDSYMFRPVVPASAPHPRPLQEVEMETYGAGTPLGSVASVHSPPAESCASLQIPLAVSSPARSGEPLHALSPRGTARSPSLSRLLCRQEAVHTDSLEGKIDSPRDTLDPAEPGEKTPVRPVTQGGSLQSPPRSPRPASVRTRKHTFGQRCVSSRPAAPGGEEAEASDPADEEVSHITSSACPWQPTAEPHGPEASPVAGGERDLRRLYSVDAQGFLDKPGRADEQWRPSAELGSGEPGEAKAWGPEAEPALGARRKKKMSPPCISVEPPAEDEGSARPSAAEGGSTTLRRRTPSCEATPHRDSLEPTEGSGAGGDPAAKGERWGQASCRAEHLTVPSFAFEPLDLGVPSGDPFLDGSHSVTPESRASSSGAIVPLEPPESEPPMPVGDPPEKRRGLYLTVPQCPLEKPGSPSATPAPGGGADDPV

[28] = biological target: T8, Voltage-dependent T-type calcium channel subunit alpha-1H; assay: human CACNA1H calcium influx blockade – cell-based, synthetic library set 2, HEK293 HH8, Fluo-4, SAR follow-up (AID 493023); assay type: functional
cells [29] = assay type: functional, cell-based
[30] = fluconazole-exposed Candida albicans growth modulators – fluorescence, retest, confirmation (AID 2467); assay type: functional, cell-based
[31] = NIH-3T3 fibroblast cytotoxicity, dose response, cytotoxicity control, cell-based, fluorescence, Alamar Blue, secondary assay (AID 2327); assay type: functional;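 further: NIH-3T3 mouse fibroblasts cultured with fluconazole at 8 µg/mL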
cells [32] = assay type: functional, cell-based; remark: listed apart in the source
[33] = biological target: E3 ubiquitin-protein ligase Mdm2/Protein Mdm4 (Homo sapiens, UniProt O15151+Q00987); assay: disruption of Mdm2/MdmX protein binding – luminescence detection, dose response (AID 504593); assay type: functional
[34] = Luminescence Cell-Based Dose Retest to Confirm Inhibitors of Cancer Stem Cells. [Related pubchem assays (depositor defined):AID2717, AID2721]; assay type: functional; details: Homo sapiens

T1 sequence (Q01196 whole entry, the tested form may be a part): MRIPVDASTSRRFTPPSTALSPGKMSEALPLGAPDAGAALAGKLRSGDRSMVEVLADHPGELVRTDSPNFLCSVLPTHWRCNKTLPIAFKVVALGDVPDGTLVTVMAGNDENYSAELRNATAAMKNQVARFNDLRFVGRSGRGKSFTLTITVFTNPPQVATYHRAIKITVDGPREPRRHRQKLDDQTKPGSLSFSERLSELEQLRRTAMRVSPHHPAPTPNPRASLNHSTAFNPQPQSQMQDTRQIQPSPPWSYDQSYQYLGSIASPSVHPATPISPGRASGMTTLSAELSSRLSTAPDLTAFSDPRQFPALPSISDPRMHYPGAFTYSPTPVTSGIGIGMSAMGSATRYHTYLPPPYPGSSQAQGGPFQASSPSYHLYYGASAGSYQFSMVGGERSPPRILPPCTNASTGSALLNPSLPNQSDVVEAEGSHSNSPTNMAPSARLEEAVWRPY
T1 sequence (Q13951 whole entry, the tested form may be a part): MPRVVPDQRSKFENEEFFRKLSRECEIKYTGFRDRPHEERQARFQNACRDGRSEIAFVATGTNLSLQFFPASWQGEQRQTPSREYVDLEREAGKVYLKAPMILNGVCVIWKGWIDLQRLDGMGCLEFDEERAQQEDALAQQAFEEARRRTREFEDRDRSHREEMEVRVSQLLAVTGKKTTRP

With `Cc1ccc(CNC(=O)NCc2ccccc2)cc1` the IC50 [1] was > 100 µM (inactive) and the IC50 [2] was > 100 µM (inactive).
For `O=C(O)/C(=C\c1ccc(Cl)c([N+](=O)[O-])c1)c1ccc(S(=O)(=O)N2CCCC2)s1`, the IC50 [3] was 19.4 µM (active), the AC50 (Caspase-7) was > 70 µM (inactive) and the AC50 (Caspase-6) was 3.82 µM (active). For the same compound, the IC50 [4] was 47.8 µM (active), the IC50 (Bcl-2-like protein 1) was > 109 µM (not active) and the IC50 [5] was 15 µM (not active).
In the case of `CC(C)NC(=O)c1ccccc1-c1ccccc1`, the IC50 (Coagulation factor XII [6]) is reported as > 50 µM (inactive).
For `Cn1ncc2c(ON=C(N)c3ccc(C(C)(C)C)cc3)ncnc21`, the EC50 [7] was 7.4 µM (active), the EC50 [8] was > 120 µM (not active) and the “Absolute IC50 (XBP1)” value (X-box-binding protein 1) was < 10 µM. For the same compound, the EC50 (BJ [9]) was 4.91 µM (inconclusive), the AC50 (INS1) was 5.03 µM (active) and the EC50 [10] was 2.83 µM (active). The IC50 [11] was 2.12 µM (active), the EC50 (BJ [12]) was 1.32 µM (active) and the EC50 [13] was > 100 µM (inactive). For the same compound, the IC50 [14] was 1.22 µM (active), the EC50 [15] was 7.91 µM (active) and the EC50 (BJ [16]) was 2.92 µM (active). The EC50 (BJ [17]) was 5.24 µM (inconclusive) and the EC50 [18] was 10.1 µM (active).
With `O=C(Cc1ccc(-n2cccc2)cc1)N1CCc2ccccc21` the IC50 (Coagulation factor XII [19]) was > 50 µM (inactive).
For `COc1ccc(/C=C2\SC(=S)N(CCC(=O)N3CCOCC3)C2=O)cc1`, the EC50 (T-cell) was 16.2 µM (active).
With `Cc1cccc(N2CCN(C(=O)c3cccc(S(=O)(=O)N(C)C)c3)CC2)c1C` the IC50 [20] was > 32 µM (inactive), the EC50 [21] was 3.12 µM (active) and the EC50 [22] was > 32 µM (inactive). The IC50 (Cannabinoid receptor 2 [23]) was > 32 µM (inactive), the IC50 (Cannabinoid receptor 1 [24]) was > 32 µM (inactive) and the EC50 (Cannabinoid receptor 2 [25]) was > 32 µM (inactive). For the same compound, the EC50 (Cannabinoid receptor 1 [26]) was > 32 µM (inactive).
With `CC(C)(C)CCN1C[C@@H]2[C@@H](CNC(=O)c3cc(Cl)cc(Cl)c3)[C@@H]2C1` the IC50 [27] was 0.036 µM (active) and the EC50 [28] was 0.15 µM (active).
With `O=C(CN1CCCc2ccccc21)N/N=C/c1c(O)ccc2ccccc12` the EC50 (cells [29]) was > 350 µM (not active), the EC50 [30] was 1.91 µM (active) and the EC50 [31] was > 160 µM (inconclusive). The EC50 (cells [32]) was 60.1 µM (active), the IC50 [33] was 2.68 µM (active) and the AC50 [34] was 1.83 µM (active).
